Literature values, collected in patent US7410504B2, “Adducts based on cyclic compounds and the use thereof as tanning agents and curing agents” (BASF Aktiengesellschaft, priority 2003, dated 2008).

Details: small amounts of glutaraldehyde, from 0.5 to 0.9% by weight based on the pelt weight

Shrinkage temperature: ≤ 70 °C
SMILES: O=CCCCC=O [glutaraldehyde]
